Test results reported in PubChem BioAssay (NCI).
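Briefly, cells in 96-well plates were exposed to five compound concentrations for 48 h, and endpoints were estimated by linear interpolation. At the GI50, growth is halved. TGI: total growth inhibition.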

Tests used:
Assay in all cases: DTP human tumour cell line panel, 48 h
HCC-2998 colon = system: HCC-2998 colon
HOP-92 NSCLC = system: HOP-92 NSCLC
M14 melanoma = system: M14 melanoma
MOLT-4 leukemia = system: MOLT-4 leukemia
NCI-H226 lung = system: NCI-H226 lung
RXF 393 renal = system: RXF 393 renal
SF-268 CNS = system: SF-268 CNS
SN12C renal = system: SN12C renal
SW-620 colon = system: SW-620 colon
UACC-257 melanoma = system: UACC-257 melanoma

Row | SMILES | GI50 (HCC-2998 colon) [µM] | TGI (HCC-2998 colon) [µM] | GI50 (HOP-92 NSCLC) [µM] | TGI (HOP-92 NSCLC) [µM] | GI50 (M14 melanoma) [µM] | TGI (M14 melanoma) [µM] | GI50 (MOLT-4 leukemia) [µM] | TGI (MOLT-4 leukemia) [µM] | GI50 (NCI-H226 lung) [µM] | TGI (NCI-H226 lung) [µM] | GI50 (RXF 393 renal) [µM] | TGI (RXF 393 renal) [µM] | GI50 (SF-268 CNS) [µM] | TGI (SF-268 CNS) [µM] | GI50 (SN12C renal) [µM] | TGI (SN12C renal) [µM] | GI50 (SW-620 colon) [µM] | TGI (SW-620 colon) [µM] | GI50 (UACC-257 melanoma) [µM] | TGI (UACC-257 melanoma) [µM]
1 | COc1cc(/C=C2\SC(N3CCCCC3)=NC2=O)ccc1OCCCCCCOc1ccc(/C=C2\SC(N3CCCCC3)=NC2=O)cc1OC | 13.6 | 27 | 2.47 | 8.95 | 21.9 | > 100 | 17.4 | > 100 | 5.18 | 22 | 4.94 | 16.9 | 4.2 | 17.6 | 19 | > 100 | 14.9 | 48.3 | 17.4 | 47.6
2 | Cc1ccc(C2CC(c3ccc(Nc4ccnc5cc(Cl)ccc45)cc3)=NN2C=O)cc1 (centres undefined) | 7.44 | > 100 | 2.14 | > 100 | 6.88 | > 100 | 5.13 | > 100 | > 100 | > 100 | 4.89 | > 100 | 8.61 | > 100 | 7.23 | > 100 | > 100 | > 100 | > 100 | > 100
3 | COc1ccc2c(c1OC)O/C(=C\c1ncc([N+](=O)[O-])n1C)C2=O | 2.16 | 4.73 | 1.45 | 4.86 | 0.591 | 2.52 | 0.266 |  | 7.29 | 50.8 | 0.774 | 2.27 | 1.36 | 6.39 | 1.78 | 8.83 | 0.385 |  | 0.788 | 2.67
4 | Cc1ccc2ccc(-c3ccccc3)c3c2c1C(=O)c1ccccc1C3=O |  | > 100 |  | 74.4 |  | > 100 |  | > 100 |  | > 100 |  | > 100 |  | > 100 |  | > 100 |  | > 100 |  | > 100
5 | CN1CC[C@H](c2c(O)cc(O)c3c(=O)cc(-c4ccccc4Cl)oc23)[C@H](O)C1 | 0.124 | 0.761 | 0.0693 | 0.524 | 0.0696 | 0.293 | 0.076 | > 10 | 0.0695 | 0.46 | 0.0204 | 0.0671 | 0.0647 |  | 0.0703 | > 10 | 0.0572 | > 10 | 0.128 | 0.91
6 | CSC1=Nc2c(c(C)c(-c3ccccc3)n2COC(CO)CO)C2=NC(=O)CC(C)N12 (centres undefined) | > 100 | > 100 | > 100 | > 100 |  |  | > 100 | > 100 | > 100 | > 100 | > 100 | > 100 | > 100 | > 100 | > 100 | > 100 | > 100 | > 100 | > 100 | > 100
7 | COc1ccc(Br)c(C(=O)N2CCc3ccccc32)c1N |  | > 100 |  | > 100 |  | > 100 |  | > 100 |  | > 100 |  | > 100 |  |  |  | > 100 |  | > 100 |  | > 100
